Reference: US5084464A, “Conjugated γ-hydroxybutenolide compounds and antiulcer agents containing the same as an effective ingredient” (Kuraray Company Ltd., priority 1989, dated 1992)

How the values were obtained:
[1] = tested on: HCl-ethanol-induced ulcers generated at the mucosa of the stomach; experiment: Antiulcer Activity (HCl-Ethanol Ulcer); assay type: in vivo; details: oral, one hour before HCl-ethanol, rats
Experimental: Antiulcer Activity (HCl-Ethanol Ulcer)
1.5 ml of a 60% aqueous ethanol solution containing 150 mM hydrochloric acid was orally administered to rats. One hour thereafter the rats were sacrificed and the length (mm) of HCl-ethanol-induced ulcers generated at the mucosa of the stomach were measured. Sum of the length of ulcer per animal is defined as ulcer coefficient. Specimens each was orally administered one hour before the HCl-ethanol administration. Inhibition rate was calculated as the ratio of the difference of ulcer coefficients of the control group and specimen-administered group to the ulcer coefficient of the control group.

[2] = Acute Toxicity (oral administration); details: mouse, in vivo
Experimental: Acute toxicity tests through oral administration were carried out using male ICR-strain mice (5 weeks old).

[3] = Rattus norvegicus, 1 h, read-out: Inhibition Rate

| SMILES | inhibition in vivo at 2.5 mg/kg [1, 3] [%] | inhibition in vivo at 5 mg/kg [1, 3] [%] | further results |
| --- | --- | --- | --- |
| O=C1C=C(/C=C/c2cccc3ccccc23)C(O)O1 (stereo not shown) [(5)] | 94 | – | – |
| CN(C)c1ccc(/C=C/C2=CC(=O)OC2O)cc1 (stereo not shown) [(2)] | 37.5 | – | – |
| O=C1C=C(/C=C/C=C/C=C/c2ccccc2)C(O)O1 (stereo not shown) [(10)] | – | 61.8 | – |
| O=C1C=C(/C=C/c2cccc(C(=O)c3ccccc3)c2)C(O)O1 (stereo not shown) [(3)] | – | 69.7 | – |
| O=C1C=C(/C=C/c2cccs2)C(O)O1 (stereo not shown) [(8)] | 95.5 | – | – |
| COc1ccc2cc(/C=C/C3=CC(=O)OC3O)ccc2c1 (stereo not shown) [(6)] | – | 61.3 | – |
| O=C1C=C(/C=C/c2cccc(Cc3cccnc3)c2)C(O)O1 (stereo not shown) [(4)] | – | 42 | – |
| CC(=O)CCC=C(C)CCC=C(C)CCC=C(C)CCC=C(C)C [Teprenone, reference compound] | – | – | inhibition in vivo at 25 mg/kg ([1]; Rattus norvegicus, 1 h, 25 mg/kg, read-out: Inhibition Rate): 48.9% |
| CC(=O)c1ccc2c(c1)C(=O)C1(CC1)O2 [Spizofurone, reference compound] | – | – | Inhibition Rate ([1]; 100 mg/kg): 86.6% |
| O=C1C=C(/C=C/c2ccco2)C(O)O1 (stereo not shown) [(7)] | 96 | – | – |
| O=C1C=C(/C=C/C=C/c2ccccc2)C(O)O1 (stereo not shown) [(9)] | – | 98.6 | – |
| CC(C)=C/C=C/C1=CC(=O)OC1O (stereo not shown) [Compound (1), 5-hydroxy-4-[4-methyl-1,3-pentadienyl]-2(5H)-furanone] | – | 90.6 | LD50 [2]: ≥ 2000 mg/kg |
